# Data from patent publication US20050009005A1, “Methods of using quantitative lipid metabolome data” (Lipomics Technologies, Inc., priority 2001, published 2005).
# Tested on: de novo fatty acid synthesis
# Assay: Lipid metabolite profile of plasma, heart, liver and inguinal adipose of CL316,243-treated mice (trial 2; Tables 7 and 8)
# Assay type: in vivo
# Settings: Liver, mean
# From the text: It is understood that the described methods can be used to analyze lipid metabolites from other subjects, including particularly animals other than mice.
# Mouse tissue and plasma samples were a generous donation to Lipomics Technologies, Inc., from Dr. Edward Leiter of the Jackson Laboratory (Bar Harbor, Me.). Samples included the plasma, heart, liver and inguinal adipose of mice treated with pharmaceuticals or their corresponding controls.
# In trial 2, male, inbred NON mice were fed a control with or without the presence of the β-3 adrenergic agonist CL316,243 for four weeks (at 0.001% CL316,243 by weight in the dietary chow).
# In both studies, five treated and five control mice were used. Following the treatments and the killing of the mice, tissues and plasma were taken, chilled to −80 ° C. and shipped to the analysis laboratory at Lipomics Technologies in a frozen state.
# Tissue processing and lipid extraction, including provision of internal standards, was carried out essentially as described in Watkins et al. (J. Lipid Res. Papers in Press, 10.1184/jlf.M200169-JLF200, published August 16, 2002), and in co-owned international application PCT/US02/21426, entitled “GENERATING, VIEWING, INTERPRETING, AND UTILIZING A QUANTITATIVE DATABASE OF METABOLITES,” both of which are incorporated in their entirety herein by reference.
# The separation of lipid classes was performed in some instance by preparative thin-layer chromatography (TLC). To remove any residual metal or other damaging contaminants on the TLC plates, each plate was washed prior to use. Washing the plates is a three-step process that involves impregnating each plate with ethylenediamine tetraacetic acid (EDTA) and rinsing the plates once with methanol and once with chloroform. Each plate is first impregnated with 1 mM EDTA, pH 5.5, by ascending development using the method of Ruiz (J. Lipid Res. 38, 1482-1489, 1997). After each plate was completely developed, it was dried in air overnight. Once dry, each plate was developed in methanol, dried, and developed in chloroform in the same direction as the development with EDTA. The washed plates were then dried in air. Just prior to use, each plate was activated by heating to 110° C. for 10 minutes.
# To prepare the TLC chamber for chromatography, Whatman (Clifton, N.J.) filter paper was cut into 20×80-cm strips and wrapped around the inside wall of a 30×60×10-cm glass development chamber. One hundred milliliters of the appropriate mobile phase was added to the chamber, and the chambers were sealed and allowed to equilibrate. Chambers were considered equilibrated when the solvent front had completely ascended the filter paper. The mobile phase employed for the separation of phospholipid classes (lyso-phospholipids, sphingomyelin, phosphatidylcholine, phosphatidylserine, phosphatidylethanolamine and cardiolipin) was a modification of the solvent system described by Holub and Skeaf (“Nutritional regulation of cellular phosphatidylinositol,” in Methods in Enzymology, ed. Conn, P. M. (Academic Press, Inc., Orlando), pp. 234-243, 1987) consisting of chloroform/methanol/acetic acid/water (100:67:7:4, by volume).
# For the separation of neutral lipid classes (free fatty acids, free sterols, triacylglycerides and cholesterol esters), a solvent system consisting of petroleum ether/diethyl ether/acetic acid (80:20:1, by volume) was used (Mangold, Thin Layer Chromatography—A Laboratory Handbook (Springer-Verlag, New York), 1969).
# After the TLC plate was activated, the sample extracts were spotted onto the activated plate. As a general rule, samples were spotted at an estimated concentration such that no single lipid class was present at more than 25 jig per centimeter of plate width following chromatography. This ensured that the plate was not overloaded and minimized the risk of cross-contamination between lipid classes (cross-contamination is readily identified during sample analysis as each lipid class contains unique internal standards). […]
smiles,measurement,setting,value
"C[C@H](Cc1ccc2c(c1)OC(C(=O)[O-])(C(=O)[O-])O2)NC[C@H](O)c1cccc(Cl)c1.[Na+].[Na+] [CL316,243]",Total nMole of FA,FFA,9555.8 nanomoles per gram
same,14:0,PC,69.0 nanomoles per gram
same,16:0,PC,11221.7 nanomoles per gram
same,16:1n7,PC,358.8 nanomoles per gram
same,18:0,PC,5889.5 nanomoles per gram
same,18:1n7,PC,741.3 nanomoles per gram
same,18:1n9,PC,3855.0 nanomoles per gram
same,Saturates,PC,17292.7 nanomoles per gram
same,Total n7,PC,1100.1 nanomoles per gram
same,Total n9,PC,3964.0 nanomoles per gram
same,Total nMole of FA,PC,19052.2 nanomoles per gram
same,14:0,PE,13.1 nanomoles per gram
same,16:0,PE,4406.0 nanomoles per gram
same,16:1n7,PE,117.9 nanomoles per gram
same,18:0,PE,3777.4 nanomoles per gram
same,18:1n7,PE,247.4 nanomoles per gram
same,18:1n9,PE,1320.6 nanomoles per gram
same,Saturates,PE,8245.4 nanomoles per gram
same,Total n7,PE,365.3 nanomoles per gram
same,Total n9,PE,1376.1 nanomoles per gram
same,Total nMole of FA,PE,9924.9 nanomoles per gram
same,14:0,PL,91.0 nanomoles per gram
same,16:0,PL,16120.7 nanomoles per gram
same,16:1n7,PL,586.5 nanomoles per gram
same,18:0,PL,12438.5 nanomoles per gram
same,18:1n7,PL,1242.7 nanomoles per gram
same,18:1n9,PL,5839.1 nanomoles per gram
same,Saturates,PL,29247.6 nanomoles per gram
same,Total n7,PL,1829.2 nanomoles per gram
same,Total n9,PL,6261.0 nanomoles per gram
same,Total nMole of FA,PL,34731.4 nanomoles per gram
same,14:0,PS/I,19.9 nanomoles per gram
same,16:0,PS/I,898.1 nanomoles per gram
same,16:1n7,PS/I,37.8 nanomoles per gram
same,18:0,PS/I,4313.9 nanomoles per gram
same,18:1n7,PS/I,100.2 nanomoles per gram
same,18:1n9,PS/I,486.8 nanomoles per gram
same,Saturates,PS/I,5283.6 nanomoles per gram
same,Total n7,PS/I,138.0 nanomoles per gram
same,Total n9,PS/I,607.6 nanomoles per gram
same,Total nMole of FA,PS/I,5625.0 nanomoles per gram
same,14:0,TAG,207.9 nanomoles per gram
same,16:0,TAG,6580.5 nanomoles per gram
same,16:1n7,TAG,675.6 nanomoles per gram
same,18:0,TAG,668.7 nanomoles per gram
same,18:1n7,TAG,619.4 nanomoles per gram
same,18:1n9,TAG,7123.9 nanomoles per gram
same,Saturates,TAG,7585.2 nanomoles per gram
same,Total n7,TAG,1295.0 nanomoles per gram
same,Total n9,TAG,7280.9 nanomoles per gram
same,Total nMole of FA,TAG,6910.6 nanomoles per gram
same,14:0,lipid class CE,2.5 percentage of total fatty acids
same,16:0,lipid class CE,27.3 percentage of total fatty acids
same,16:1n7,lipid class CE,4.9 percentage of total fatty acids
same,18:0,lipid class CE,7.1 percentage of total fatty acids
same,18:1n7,lipid class CE,1.8 percentage of total fatty acids
same,18:1n9,lipid class CE,25.4 percentage of total fatty acids
same,Saturates,lipid class CE,39.0 percentage of total fatty acids
same,Total,lipid class CE,100.0 percentage of total fatty acids
same,Total n7,lipid class CE,6.7 percentage of total fatty acids
same,Total n9,lipid class CE,26.9 percentage of total fatty acids
same,14:0,lipid class CL,0.4 percentage of total fatty acids
same,16:0,lipid class CL,4.9 percentage of total fatty acids
same,16:1n7,lipid class CL,1.5 percentage of total fatty acids
same,18:0,lipid class CL,4.7 percentage of total fatty acids
same,18:1n7,lipid class CL,4.4 percentage of total fatty acids
same,18:1n9,lipid class CL,8.7 percentage of total fatty acids
same,Saturates,lipid class CL,10.4 percentage of total fatty acids
same,Total,lipid class CL,25.0 percentage of total fatty acids
same,Total n7,lipid class CL,5.9 percentage of total fatty acids
same,Total n9,lipid class CL,9.4 percentage of total fatty acids
same,14:0,lipid class FFA,1.6 percentage of total fatty acids
same,16:0,lipid class FFA,24.0 percentage of total fatty acids
same,16:1n7,lipid class FFA,3.9 percentage of total fatty acids
same,18:0,lipid class FFA,4.9 percentage of total fatty acids
same,18:1n7,lipid class FFA,2.8 percentage of total fatty acids
same,18:1n9,lipid class FFA,23.7 percentage of total fatty acids
same,Saturates,lipid class FFA,31.2 percentage of total fatty acids
same,Total,lipid class FFA,100.0 percentage of total fatty acids
same,Total n7,lipid class FFA,6.7 percentage of total fatty acids
same,Total n9,lipid class FFA,24.2 percentage of total fatty acids
same,14:0,lipid class PC,0.2 percentage of total fatty acids
same,16:0,lipid class PC,29.4 percentage of total fatty acids
same,16:1n7,lipid class PC,0.9 percentage of total fatty acids
same,18:0,lipid class PC,15.5 percentage of total fatty acids
same,18:1n7,lipid class PC,1.9 percentage of total fatty acids
same,18:1n9,lipid class PC,10.1 percentage of total fatty acids
same,Saturates,lipid class PC,45.4 percentage of total fatty acids
same,Total,lipid class PC,50.0 percentage of total fatty acids
same,Total n7,lipid class PC,2.9 percentage of total fatty acids
same,Total n9,lipid class PC,10.4 percentage of total fatty acids
same,14:0,lipid class PE,0.1 percentage of total fatty acids
same,16:0,lipid class PE,22.2 percentage of total fatty acids
same,16:1n7,lipid class PE,0.6 percentage of total fatty acids
same,18:0,lipid class PE,19.1 percentage of total fatty acids
same,18:1n7,lipid class PE,1.2 percentage of total fatty acids
same,18:1n9,lipid class PE,6.6 percentage of total fatty acids
same,Saturates,lipid class PE,41.5 percentage of total fatty acids
same,Total,lipid class PE,50.0 percentage of total fatty acids
same,Total n7,lipid class PE,1.8 percentage of total fatty acids
same,Total n9,lipid class PE,6.9 percentage of total fatty acids
same,14:0,lipid class PL,0.1 percentage of total fatty acids
same,16:0,lipid class PL,23.2 percentage of total fatty acids
same,16:1n7,lipid class PL,0.8 percentage of total fatty acids
same,18:0,lipid class PL,17.9 percentage of total fatty acids
same,18:1n7,lipid class PL,1.8 percentage of total fatty acids
same,18:1n9,lipid class PL,8.4 percentage of total fatty acids
same,Saturates,lipid class PL,42.1 percentage of total fatty acids
same,Total,lipid class PL,50.0 percentage of total fatty acids
same,Total n7,lipid class PL,2.6 percentage of total fatty acids
same,Total n9,lipid class PL,9.0 percentage of total fatty acids
same,14:0,lipid class PS/I,0.2 percentage of total fatty acids
same,16:0,lipid class PS/I,8.0 percentage of total fatty acids
same,16:1n7,lipid class PS/I,0.3 percentage of total fatty acids
same,18:0,lipid class PS/I,38.4 percentage of total fatty acids
same,18:1n7,lipid class PS/I,0.9 percentage of total fatty acids
same,18:1n9,lipid class PS/I,4.3 percentage of total fatty acids
same,Saturates,lipid class PS/I,47.0 percentage of total fatty acids
same,Total,lipid class PS/I,50.0 percentage of total fatty acids
same,Total n7,lipid class PS/I,1.2 percentage of total fatty acids
